Experimental data from ChEMBL document CHEMBL1649203, “Pharmacokinetics and safety of famciclovir in children with herpes simplex or varicella-zoster virus infection” (Antimicrob Agents Chemother, 2009).

What was measured:
Homo sapiens [1] = assay: Toxicity in HSV-infected 1 to <2 years aged pediatric patient assessed as at least one adverse event at 30.9 mg/kg, po bid; format: organism-based; set-up: dose 30.9 mg/kg, route oral; details: in vivo
Homo sapiens [2] = assay: Toxicity in orally dosed HSV-infected patient assessed as incidence of diarrhea administered as bid; format: organism-based; details: in vivo, po
Homo sapiens [3] = assay: Toxicity in HSV-infected 2 to <6 years aged pediatric patient assessed as incidence of diarrhea at 27.6 mg/kg, po bid; format: organism-based; set-up: dose 27.6 mg/kg, route oral; details: in vivo
Homo sapiens [4] = assay: Toxicity in HSV-infected 2 to <6 years aged pediatric patient assessed as at least one adverse event at 27.6 mg/kg, po bid; format: organism-based; set-up: dose 27.6 mg/kg, route oral; details: in vivo
Homo sapiens [5] = assay: Toxicity in orally dosed VZV-infected patient assessed as pyrexia administered as tid; format: organism-based; details: in vivo, po
Homo sapiens [6] = assay: AUC (0 to last) in 2 to <6 years aged pediatric patient administered as single dose; format: ADME, organism-based, Plasma; set-up: time 0 - last; details: in vivo
[7] = Apparent oral clearance in 1 to <2 years aged pediatric patient administered as single dose; format: ADME, organism-based; details: human, in vivo
Homo sapiens [8] = assay: Toxicity in orally dosed VZV-infected patient assessed as incidence of cellulitis administered as tid; format: organism-based; details: in vivo, po
Homo sapiens [9] = assay: Toxicity in VZV-infected 1 to <2 years aged pediatric patient assessed as incidence of vomiting at 40.8 mg/kg, po tid; format: organism-based; set-up: dose 40.8 mg/kg, route oral; details: in vivo
Homo sapiens [10] = assay: Toxicity in VZV-infected 1 to <2 years aged pediatric patient assessed as incidence of abdominal pain at 40.8 mg/kg, po tid; format: organism-based, Abdomen; set-up: dose 40.8 mg/kg, route oral; details: in vivo
Homo sapiens [11] = assay: Toxicity in VZV-infected 6 to <=12 years aged pediatric patient assessed as incidence of abdominal pain at 35.5 mg/kg, po tid; format: organism-based, Abdomen; set-up: dose 35.5 mg/kg, route oral; details: in vivo
Homo sapiens [12] = assay: Toxicity in VZV-infected 2 to <6 years aged pediatric patient assessed as incidence of vomiting at 40.6 mg/kg, po tid; format: organism-based; set-up: dose 40.6 mg/kg, route oral; details: in vivo
Homo sapiens [13] = assay: Toxicity in VZV-infected 2 to <6 years aged pediatric patient assessed as incidence of nausea at 40.6 mg/kg, po tid; format: organism-based; set-up: dose 40.6 mg/kg, route oral; details: in vivo
Homo sapiens [14] = assay: Toxicity in orally dosed VZV-infected patient assessed as at least one adverse event administered as tid; format: organism-based; details: in vivo, po
Homo sapiens [15] = assay: Toxicity in VZV-infected 2 to <6 years aged pediatric patient assessed as pyrexia at 40.6 mg/kg, po tid; format: organism-based; set-up: dose 40.6 mg/kg, route oral; details: in vivo
[16] = Half life in 1 to <2 years aged pediatric patient administered as single dose; format: ADME, organism-based; details: human, in vivo
[17] = Cmax in 6 to <=12 years aged pediatric patient administered as single dose; format: ADME, organism-based; details: human, in vivo
Homo sapiens [18] = assay: Toxicity in HSV-infected 1 to <2 years aged pediatric patient assessed as pyrexia at 30.9 mg/kg, po administered as bid; format: organism-based; set-up: dose 30.9 mg/kg, route oral; details: in vivo
[19] = Half life in 6 to <=12 years aged pediatric patient administered as single dose; format: ADME, organism-based; details: human, in vivo
Homo sapiens [20] = assay: Toxicity in VZV-infected 6 to <=12 years aged pediatric patient assessed as incidence of cellulitis at 35.5 mg/kg, po tid; format: organism-based; set-up: dose 35.5 mg/kg, route oral; details: in vivo
Homo sapiens [21] = assay: AUC (0 to last) in 6 to <=12 years aged pediatric patient administered as single dose; format: ADME, organism-based, Plasma; set-up: time 0 - last; details: in vivo
Homo sapiens [22] = assay: Toxicity in HSV-infected 1 to <2 years aged pediatric patient assessed as incidence of nausea at 30.9 mg/kg, po bid; format: organism-based; set-up: dose 30.9 mg/kg, route oral; details: in vivo
Homo sapiens [23] = assay: Toxicity in HSV-infected 1 to <2 years aged pediatric patient assessed as incidence of cough at 30.9 mg/kg, po bid; format: organism-based; set-up: dose 30.9 mg/kg, route oral; details: in vivo
Homo sapiens [24] = assay: Toxicity in HSV-infected 6 to <=12 years aged pediatric patient assessed as pyrexia at 23.5 mg/kg, po bid; format: organism-based; set-up: dose 23.5 mg/kg, route oral; details: in vivo
Homo sapiens [25] = assay: Toxicity in HSV-infected 2 to <6 years aged pediatric patient assessed as incidence of cough at 27.6 mg/kg, po bid; format: organism-based; set-up: dose 27.6 mg/kg, route oral; details: in vivo
Homo sapiens [26] = assay: Toxicity in HSV-infected 6 to <=12 years aged pediatric patient assessed as incidence of vomiting at 23.5 mg/kg, po bid; format: organism-based; set-up: dose 23.5 mg/kg, route oral; details: in vivo
Homo sapiens [27] = assay: AUC (0 to last) in 1 to <2 years aged pediatric patient administered as single dose; format: ADME, organism-based, Plasma; set-up: time 0 - last; details: in vivo
Homo sapiens [28] = assay: Toxicity in VZV-infected 2 to <6 years aged pediatric patient assessed as at least one adverse event at 40.6 mg/kg, po tid; format: organism-based; set-up: dose 40.6 mg/kg, route oral; details: in vivo
[29] = Cmax in 2 to <6 years aged pediatric patient administered as single dose; format: ADME, organism-based; details: human, in vivo
Homo sapiens [30] = assay: Toxicity in HSV-infected 2 to <6 years aged pediatric patient assessed as incidence of vomiting at 27.6 mg/kg, po bid; format: organism-based; set-up: dose 27.6 mg/kg, route oral; details: in vivo
Homo sapiens [31] = assay: Toxicity in orally dosed HSV-infected patient assessed as incidence of headache administered as bid; format: organism-based; details: in vivo, po
Homo sapiens [32] = assay: Toxicity in VZV-infected 2 to <6 years aged pediatric patient assessed as incidence of headache at 40.6 mg/kg, po tid; format: organism-based; set-up: dose 40.6 mg/kg, route oral; details: in vivo
Homo sapiens [33] = assay: Toxicity in HSV-infected 2 to <6 years aged pediatric patient assessed as incidence of headache at 27.6 mg/kg, po bid; format: organism-based; set-up: dose 27.6 mg/kg, route oral; details: in vivo
[34] = Tmax in 2 to <6 years aged pediatric patient administered as single dose; format: ADME, organism-based; details: human, in vivo
Homo sapiens [35] = assay: AUC (0 to infinity) in 1 to <2 years aged pediatric patient administered as single dose; format: ADME, organism-based, Plasma; set-up: time infinity; details: in vivo
Homo sapiens [36] = assay: Toxicity in HSV-infected 1 to <2 years aged pediatric patient assessed as incidence of headache at 30.9 mg/kg, po bid; format: organism-based; set-up: dose 30.9 mg/kg, route oral; details: in vivo
Homo sapiens [37] = assay: Toxicity in HSV-infected 6 to <=12 years aged pediatric patient assessed as incidence of cough at 23.5 mg/kg, po bid; format: organism-based; set-up: dose 23.5 mg/kg, route oral; details: in vivo
Homo sapiens [38] = assay: Toxicity in VZV-infected 1 to <2 years aged pediatric patient assessed as incidence of cellulitis at 40.8 mg/kg, po tid; format: organism-based; set-up: dose 40.8 mg/kg, route oral; details: in vivo
Homo sapiens [39] = assay: Toxicity in VZV-infected 2 to <6 years aged pediatric patient assessed as incidence of pruritus at 40.6 mg/kg, po tid; format: organism-based; set-up: dose 40.6 mg/kg, route oral; details: in vivo
Homo sapiens [40] = assay: Toxicity in orally dosed HSV-infected patient assessed as pyrexia administered as bid; format: organism-based; details: in vivo, po
Homo sapiens [41] = assay: Toxicity in VZV-infected 1 to <2 years aged pediatric patient assessed as pyrexia at 40.8 mg/kg, po tid; format: organism-based; set-up: dose 40.8 mg/kg, route oral; details: in vivo
[42] = Apparent oral clearance in 6 to <=12 years aged pediatric patient administered as single dose; format: ADME, organism-based; details: human, in vivo
Homo sapiens [43] = assay: Toxicity in VZV-infected 1 to <2 years aged pediatric patient assessed as incidence of pruritus at 40.8 mg/kg, po tid; format: organism-based; set-up: dose 40.8 mg/kg, route oral; details: in vivo

Work on Nc1nc2c(ncn2CCC(CO)CO)c(=O)[nH]1 [PENCICLOVIR] yielded an Activity (Homo sapiens [1]) of 42.2%, an Activity (Homo sapiens [2]) of 8.5% and an Activity (Homo sapiens [3]) of 6.3%. For the same compound, the Activity (Homo sapiens [4]) was 50%, the Activity (Homo sapiens [5]) was 7.5% and the AUC (Homo sapiens [6]) was 6.31 ug/hr.ml. It also gave a CL/F [7] of 278 mL/min, an Activity (Homo sapiens [8]) of 3.8% and an Activity (Homo sapiens [9]) of 27.8%. It also gave an Activity (Homo sapiens [10]) of 0%, an Activity (Homo sapiens [11]) of 12.5% and an Activity (Homo sapiens [12]) of 0%. It also gave an Activity (Homo sapiens [13]) of 5.3%, an Activity (Homo sapiens [14]) of 45.3% and an Activity (Homo sapiens [15]) of 5.3%. It also gave a half-life [16] of 1.2 h, a Cmax [17] of 3410 ng/mL and an Activity (Homo sapiens [18]) of 15.4%. It also gave a half-life [19] of 1.62 h, an Activity (Homo sapiens [20]) of 6.3% and an AUC (Homo sapiens [21]) of 7.98 ug/hr.ml. It also gave an Activity (Homo sapiens [22]) of 7.7%, an Activity (Homo sapiens [23]) of 7.7% and an Activity (Homo sapiens [24]) of 0%. The Activity (Homo sapiens [25]) was 6.3%, the Activity (Homo sapiens [26]) was 11.1% and the AUC (Homo sapiens [27]) was 6.52 ug/hr.ml. For the same compound, the Activity (Homo sapiens [28]) was 52.6%, the Cmax [29] was 2780 ng/mL and the Activity (Homo sapiens [30]) was 6.3%. It also gave an Activity (Homo sapiens [31]) of 8.5%, an Activity (Homo sapiens [32]) of 0% and an Activity (Homo sapiens [33]) of 0%. It also gave a Tmax [34] of 1.07 h, an AUC (Homo sapiens [35]) of 7.16 ug/hr.ml and an Activity (Homo sapiens [36]) of 0%. It also gave an Activity (Homo sapiens [37]) of 5.6%, an Activity (Homo sapiens [38]) of 0% and an Activity (Homo sapiens [39]) of 0%. It also gave an Activity (Homo sapiens [40]) of 4.3%, an Activity (Homo sapiens [41]) of 11.1% and a CL/F [42] of 578 mL/min. It also gave an Activity (Homo sapiens [43]) of 5.6%.
